According to patent US4584301A, “Diphenylmethylene piperidines, compositions and methods of use” (Warner-Lambert Company, priority 1985, dated 1986):
Structures can show the parent of a compound that is named as a salt. Where two headings read alike, the source gives them in different places.

Legend:
[1] = target: Dopamine D2 receptor (Rattus norvegicus, UniProt P61169); assay: Affinity for dopamine D2 receptors in rat brain membranes; type: binding
[2] = target: Muscarinic Cholinergic receptor; assay: Affinity for muscarinic cholinergic receptors in rat brain membranes; type: binding
Experimental: This test uses the displacement of [^3 H] quinuclidinyl benzilate ([^3 H]QNB) from specific muscarinic cholinergic receptors in the rat brain to measure in vitro anticholinergic activity of compounds. […]. A Long-Evans male rat weighing 180-200 grams is routinely used. The brain tissue homogenate along with appropriate concentrations of test compounds and [^3 H]QNB is incubated for one hour at 25° C. in a buffer medium of 50 mM Na-K PO4 pH 7.4. The material is filtered and washed on a millipore filter using Whatman GF/B filters. The filters are counted on a scintillation spectrophotometer. A maximal displacement by 0.1 mM oxotremorine is used to determine how much of the total binding is specific for muscarinic receptors.
Results: The results are reported as percent inhibition of total specific binding. Reference: Yamamura, Henry L. and Snyder, Solomon H. (1974). Muscarinic Cholinergic Binding in Rat Brain Proc. Nat. Acad. Sci. USA Vol 71 No. 5 pp. 1725-1729 May 1974.
(§1) for Dopamine D2, Muscarinic, and
(§2) Histamine H1 Receptors in Rat Brain Membranes

[3] = target: T1, Histamine H1 receptor (Rattus norvegicus, UniProt P31390); assay: Affinity for histamine H1 receptors in rat brain membranes; type: binding
T1 construct: Histamine H1 Receptors in Rat Brain Membranes; from tissue; host or cells: rat brain membranes
T1 sequence (P31390 whole entry): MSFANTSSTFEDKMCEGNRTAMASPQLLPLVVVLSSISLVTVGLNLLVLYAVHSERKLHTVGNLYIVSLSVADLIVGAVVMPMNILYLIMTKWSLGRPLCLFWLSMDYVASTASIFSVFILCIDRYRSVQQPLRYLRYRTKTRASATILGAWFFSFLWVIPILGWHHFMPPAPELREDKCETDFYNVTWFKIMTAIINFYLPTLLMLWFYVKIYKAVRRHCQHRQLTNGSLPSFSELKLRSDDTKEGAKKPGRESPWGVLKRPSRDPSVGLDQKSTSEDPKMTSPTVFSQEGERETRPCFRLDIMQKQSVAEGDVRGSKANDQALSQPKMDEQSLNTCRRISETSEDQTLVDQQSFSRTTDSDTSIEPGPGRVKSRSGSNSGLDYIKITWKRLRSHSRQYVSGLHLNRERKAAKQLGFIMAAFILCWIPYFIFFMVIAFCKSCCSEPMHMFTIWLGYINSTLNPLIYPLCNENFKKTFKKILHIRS
Excerpt: as §1, §2
*Tran V. T., Lebovitz, R., Toll, L., and Snyder, S. H.: [^3 H]Doxepin
interactions with histamine H1 -receptors in guinea pig and rat brai

[4] = target: muscarinic cholinergic receptors; type: binding; conditions: rat brain homogenate, [3H]QNB, 25° C., pH 7.4; for IC50: read-out: MRBA IC50; for MRBA percent inhibition of total specific binding: concentration not given
[5] = target: brain dopamine receptors; assay: Haloperidol receptor binding assay (HRBA), inhibition of 3H-haloperidol binding; conditions: rat corpus striatum, 0.6 nM 3H-haloperidol; for IC50: pH 7.7; for HRBA percent inhibition: 1 nM and 10 nM of test drug in primary screen, concentration per value not given
[6] = test system: apomorphine-induced emesis in dogs; assay: Apomorphine emesis assay; type: in vivo, dog; conditions: Canis lupus familiaris, oral, apomorphine hydrochloride 0.1 mg/kg s.c.
Experimental: 3. APOMORPHINE EMESIS ASSAY
Method: Dogs, unsegregated with respect to breed or sex, are used. They are fasted for 16 hours prior to the administration of the test compound. The test compounds are given orally by stomach tube at intervals prior to a subcutaneous injection of 0.1 mg/kg of apomorphine hydrochloride. The dogs are observed for changes in behavior or signs of neuropharmacologic action during the period between drugs and the emetic. After the apomorphine injection the frequency of vomiting episodes is recorded.
The number of dogs vomiting per total number tested, the number of vomiting episodes for each dog, and the average number of episodes are reported for dogs treated with the test compound and dogs treated with vehicle.
The drug is rated as being active if no vomiting episodes are seen in 50 percent or more of the dogs tested.

[7] = rat brain membranes, read-out: Receptor Ki, Histamine H1

Dopamine D2 receptor, sequence (P61169 whole entry): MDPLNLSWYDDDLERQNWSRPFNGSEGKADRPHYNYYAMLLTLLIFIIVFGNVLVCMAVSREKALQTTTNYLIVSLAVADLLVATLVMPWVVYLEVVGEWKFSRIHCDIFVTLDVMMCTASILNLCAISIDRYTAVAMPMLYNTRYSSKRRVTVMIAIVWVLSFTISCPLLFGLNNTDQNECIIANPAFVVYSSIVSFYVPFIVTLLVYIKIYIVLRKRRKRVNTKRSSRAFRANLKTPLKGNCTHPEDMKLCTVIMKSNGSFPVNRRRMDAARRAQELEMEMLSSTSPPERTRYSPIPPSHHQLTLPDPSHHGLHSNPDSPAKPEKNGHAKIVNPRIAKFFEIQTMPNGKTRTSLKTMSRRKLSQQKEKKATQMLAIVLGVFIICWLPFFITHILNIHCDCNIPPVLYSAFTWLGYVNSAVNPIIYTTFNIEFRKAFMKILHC

For `c1ccc(C(=C2CCN(CCCN3CCCc4ccccc43)CC2)c2ccccc2)cc1`, the Ki [1] was 42 nM, the Ki [2] was 11 nM and the Ki [3, 7] was 31 nM.
Molecule `c1ccc(C(=C2CCN(CCN3CCOCC3)CC2)c2ccccc2)cc1` [Compound 1, Morpholine, 4-[2-[4-(diphenylmethylene)-1-piperidinyl]ethyl], dihydrochloride] has an IC50 [4] of 148 nM, an IC50 [5] of 29 nM and an ED50 [6] of ~5 mg/kg. The Ki [1] was 31 nM, the Ki [2] was 32 nM and the Ki [3, 7] was 20 nM.
In the case of `c1ccc(C(=C2CCN(CCN3CCCC3)CC2)c2ccccc2)cc1` [Compound 2, Piperidine, 4-(diphenylmethylene)-1-[2-(1-pyrrolidinyl)ethyl]-,dihydrochloride], the IC50 [4] is reported as 8.4 nM and the IC50 ([5]; unit inferred) is reported as 309 nM.
With `c1ccc(C(=C2CCN(CCN3CCCCC3)CC2)c2ccccc2)cc1` [Compound 3, Piperidine, 4-(diphenylmethylene)-1-[2-(1-piperidinyl)ethyl]-, dihydrochloride, hydrate (4:1)] the IC50 [4] was 18.1 nM, the IC50 [5] was 135 nM and the Ki [1] was 105 nM. The Ki [2] was 3 nM and the Ki [3, 7] was 12 nM.
In the case of `c1ccc(C(=C2CCN(CCCN3CCCCC3)CC2)c2ccccc2)cc1` [Compound 4, Piperidine, 4-(diphenylmethylene)-1-[3-(1-piperidinyl)propyl]-,dihydrochloride, hemihydrate], the IC50 [4] is reported as 15 nM and the IC50 [5] is reported as 50.4 nM.
With `CN1CCCC1CCN1CCC(=C(c2ccccc2)c2ccccc2)CC1` (stereo not drawn) [Compound 5, Piperidine, 4-(diphenylmethylene)-1-[2-(1-methyl-2-pyrrolidinyl)ethyl]-, dihydrochloride, hemihydrate] the IC50 [4] was 19.9 nM and the IC50 ([5]; unit inferred) was 72.7 nM.
In the case of `Cl.Cl.c1ccc(C(=C2CCN(CCCCN3CCCCC3)CC2)c2ccccc2)cc1` [Compound 6, Piperidine, 4-(diphenylmethylene)-1-[4-[1-piperidinyl]butyl]-, dihydrochloride], the “MRBA percent inhibition of total specific binding” value (“MRBA percent inhibition” below) [4] is reported as 83%.
`O=C(CCN1CCC(=C(c2ccccc2)c2ccccc2)CC1)N1CCCc2ccccc21` [Compound 7] was tested, and the “MRBA percent inhibition” value [4] was 52%.
In the case of `O=C(CCN1CCC(=C(c2ccccc2)c2ccccc2)CC1)N1CC=C(Oc2ccc(F)cc2)CC1` [Compound 8, pyridine, 1-[3-[4-(diphenylmethylene-1-piperidinyl]-1-oxopropyl]-4-(fluorophenoxy)-1,2,3,6-tetrahydro-, 2-hydroxy-1,2,3-propane tricarboxylate(1:1), dihydrate], the “MRBA percent inhibition” value [4] is reported as 64%.
`CC1(C)CC(=O)C=C(NCCN2CCC(=C(c3ccccc3)c3ccccc3)CC2)C1` [Compound 9, 2-Cyclohexen-1-one, 3-[[2-[4-(diphenylmethylene)-1-piperidinyl]ethyl]amino]-5,5-dimethyl] was tested, and the “MRBA percent inhibition” value [4] was 73%, the HRBA percent inhibition [5] was 63% and the Ki [1] was 75 nM. The Ki [2] was 11 nM and the Ki [3, 7] was 56 nM.
With `Cl.Cl.O.c1ccc(C(=C2CCN(CCCN3CCCc4ccccc43)CC2)c2ccccc2)cc1` [Compound 10, Quinoline, 1-[3-[4-(diphenylmethylene]-1-piperidinyl]propyl]-1,2,3,4-tetrahydro-, dihydrochloride, monohydrate] the “MRBA percent inhibition” value [4] was 83% and the HRBA percent inhibition [5] was 69%.
For `O=C(CCN1CCC(=C(c2ccccc2)c2ccccc2)CC1)N1CCC(O)(O)CC1` [Compound 11, 4,4-Piperidinediol, 1-[3-[4-(diphenylmethylene)-1-piperidinyl]-1-oxopropyl]], the IC50 [4] was 38.3 nM and the IC50 [5] was 367 nM.
`OC1CCN(CCCN2CCC(=C(c3ccccc3)c3ccccc3)CC2)CC1` [Compound 12, 4-Piperidinol, 1-[3-[4-(diphenylmethylene)-1-piperidinyl]propyl]-,dihydro-chloride, hemihydrate] was tested, and the “MRBA percent inhibition” value [4] was 63%, the HRBA percent inhibition [5] was 89% and the Ki [1] was 25 nM. It also gave a Ki [2] of 15 nM and a Ki [3, 7] of 6.1 nM.
In the case of `OCCC1CCN(CCCN2CCC(=C(c3ccccc3)c3ccccc3)CC2)CC1` [Compound 13, 4-Piperidineethanol, 1-[3-[4-(diphenylmethylene)-1-piperidinyl]propyl]-,dihydrochloride, monohydrate], the “MRBA percent inhibition” value [4] is reported as 83%, the HRBA percent inhibition [5] is reported as 55% and the Ki [1] is reported as 158 nM. The Ki [2] was 5 nM and the Ki [3, 7] was 19.5 nM.
With `Fc1ccc(C(=C2CCN(CCCN3CCCCC3)CC2)c2ccc(F)cc2)cc1` [Compound 14, Piperidine, 1-[3-(1-piperidinyl)propyl]-4-[bis-(4-fluorophenyl)-methylene]-, dihydrochloride, hydrate (2:1)] the “MRBA percent inhibition” value [4] was 57%, the HRBA percent inhibition [5] was 73% and the Ki [1] was 67 nM. It also gave a Ki [2] of 23 nM and a Ki [3, 7] of 16 nM.
With `Cl.Cl.Fc1ccc(C(=C2CCN(CCN3CCCCC3)CC2)c2ccc(F)cc2)cc1` [Compound 15, Piperidine, 4-[bis-(4-fluorophenyl)-methylene]-1-[2-(1-piperidinyl)ethyl]-, dihydrochloride] the “MRBA percent inhibition” value [4] was 67%, the HRBA percent inhibition [5] was 62% and the Ki [1] was 56 nM. The Ki [2] was 17 nM and the Ki [3] was 86 nM.
With `CN1CCCC1CCN1CCC(=C(c2ccc(F)cc2)c2ccc(F)cc2)CC1` (stereo not drawn) [Compound 16, Piperidine, 4-[bis-(4-fluorophenyl)-methylene]-1-[2-(1-methyl-2-pyrrolidinyl)ethyl]-, (E)-2-butanedioate (1:2)] the “MRBA percent inhibition” value [4] was 36% and the HRBA percent inhibition [5] was 48%.
With `Fc1cccc(C(=C2CCN(CCCN3CCCCC3)CC2)c2cccc(F)c2)c1` [Compound 17, dihydrochloride] the “MRBA percent inhibition” value [4] was 32%.
`Cl.Cl.Clc1cccc(C(=C2CCN(CCCN3CCCCC3)CC2)c2ccccc2)c1` [Compound 18, Piperidine, 4-[(3-chlorophenyl)phenylmethylene]-1-[3-(1-piperidinyl)propyl]-, dihydrochloride] was tested, and the “MRBA percent inhibition” value [4] was 37% and the HRBA percent inhibition [5] was 52%.
With `Fc1cccc(C(=C2CCN(CCCN3CCCCC3)CC2)c2ccccc2)c1` [Compound 19, Piperidine, 4-[(3-fluorophenyl)phenylmethylene]-1-[3-(1-piperidinyl)propyl]-, dihydrochloride] the “MRBA percent inhibition” value [4] was 45% and the HRBA percent inhibition [5] was 36%.
For `O=C(CCCN1CCCCC1)N1CCC(=C(c2ccccc2)c2ccccc2)CC1` [Compound 20, Piperidine, 4-(diphenylmethylene)-1-[1-oxo-4-(1-piperidinyl)butyl]-], the “MRBA percent inhibition” value [4] was 54%.
`CSC(=NC#N)NCCCN1CCC(=C(c2ccccc2)c2ccccc2)CC1` [Compound 21, Carbamimidothioic acid, N'-cyano-N-[3-[4-(diphenylmethylene)-1-piperidinyl]-propyl]-, methyl ester] gave an IC50 [4] of 64.7 nM, an IC50 [5] of 39.2 nM and a Ki [1] of 32 nM. The Ki [2] was 8.6 nM and the Ki [3, 7] was 0.38 nM.
For `CNC(=NC#N)NCCCN1CCC(=C(c2ccccc2)c2ccccc2)CC1` [Compound 22, Guanidine, N'-cyano-N-[3-[4-(diphenylmethylene)-1-piperidinyl]propyl]-N'-methyl], the “MRBA percent inhibition” value [4] was 42% and the HRBA percent inhibition [5] was 73%.
With `N#CN=C(NCCCN1CCC(=C(c2ccccc2)c2ccccc2)CC1)N1CCCCC1` [Compound 23, 1-Piperidinecarboximidamine, N'-cyano-N-[3-[4-diphenylmethylene]-1-piperidinyl]propyl] the “MRBA percent inhibition” value [4] was 86%, the HRBA percent inhibition [5] was 55% and the Ki [1] was 28 nM. The Ki [2] was 2 nM and the Ki [3, 7] was 1.7 nM.
